Test system: Caenorhabditis elegans
Experiment: Nematicidal activity against C. elegans (motility rating)
Assay type: in vivo, C. elegans (Bristol strain)
Set-up: key: 9: complete kill; 8: no motility; 7: markedly reduced motility in approximately 95% of worms; 6: reduced motility; 5: slightly reduced motility; 0: normal motility, same as controls
Settings: read at 4 and 24 hours post-immersion
Experimental: Cultures of C. elegans (Bristol strain from J. Lewis) are maintained on E. coli lawns on NG Agar Plates at 20° C. New cultures are established weekly.
Nematodes for testing are washed from 4-5 day old cultures using Fresh Ascaris Ringers Solution (FARS). The worms are further washed with FARS,-containing gentamycin, to reduce bacterial contamination and centrifuged to separate worms from wash solution. This procedure is repeated three times. The washed worms are then added to C. brigassae Maintenance Medium (CbMM), from GIBCOa to which is added gentamycin (600 units/ml) and mycostatin (0.5 mg/ml).
Compounds are dissolved in acetone and made up to volume with equal parts of water. The final test concentration of each compound in the mixture is 150 ppm. The test material is micropipetted (25 ul) into a single well of a 96-well sterile tissue culture plate (COSTAR)^b and the solvent allowed to evaporate. These "treated" plates are used immediately or stored in a refrigerator without apparent adverse effects on the compounds.
A freshly prepared volume ([…]) of C. elegans in CbMM is micropipetted into each treated well and several control wells per plate. Culture plates are incubated at 20° C.
Observations for efficacy are made under a dissecting microscope at 4 and 24 hours post-immersion. Immediately prior to reading the plate, it is gently tapped to stimulate the movement of the worms. Activity is judged based on the drug effects on motility of the adults and larvae. […] Other factors indicating activity are easily noted such as death, rigor mortis, contraction, coiling, paralysis, abnormal twitching, reduced worm population in 48 hours and other deviation from normal behavior.
Day 0 Inoculate E. Coli-NG Agar Dish With 30-40
Day 4 Harvest New C. Elegans Population
Add C. Elegans (25-100 µL) To "Medicated"
Observe for Activity at 4 hours Post-
Day 5 Observe For Activity

Compound	Rating Against C. Elegans 150 ppm
N#Cc1c(Br)c(C#N)n(Cc2ccccc2)c1-c1ccc(Cl)cc1 [1-Benzyl-3-bromo-5-(P-chlorophenyl)pyrrole-2,4-dicarbonitrile]	9
CSCCn1c(Cl)c(Cl)c(C#N)c1-c1ccc(Cl)c(Cl)c1 [4,5-Dichloro-2-(3,4-dichlorophenyl)-1[2-(methylthio)ethyl]pyrrole-3-carbonitrile]	9
N#Cc1ccc(-c2[nH]c(Cl)c(Cl)c2C#N)cc1 [4,5-Dichloro-2-(P-cyanophenyl)-pyrrole-3-carbonitrile]	9
O=[N+]([O-])c1c[nH]cc1-c1ccc(Cl)cc1 [3-(P-chlorophenyl)-4-nitro-pyrrole]	9
N#Cc1c(-c2ccc(Cl)c(Cl)c2)[nH]c([N+](=O)[O-])c1Br [4-Bromo-2-(3,4-dichlorophenyl-5-nitropyrrole-3-carbonitrile]	9
FC(F)(F)c1[nH]ccc1-c1ccc(Cl)cc1 [3-(P-chlorophenyl)-2-(trifluoromethyl)pyrrole]	9
N#Cc1c(-c2ccc(Cl)cc2)[nH]c(C(F)(F)F)c1C(F)(F)F [2-(P-chlorophenyl)-4,5-bis(trifluoromethyl)pyrrole-3-carbonitrile]	9
COCn1c(-c2ccc(Cl)cc2)c(C#N)c(Br)c1C(F)(F)F [4-Bromo-2-(P-chlorophenyl)-1-(1-methoxymethyl)-5-(trifluoromethyl)pyrrole-3-carbonitrile]	9
4,5-Dichloro-1-(hydromethyl)-2-(α,α,α-trifluoro-P-tolyl)	9
N#Cc1[nH]c(-c2ccc(OC(F)(F)F)cc2)c(C#N)c1Br [3-Bromo-5-[P-(trifluoromethoxy)phenyl]-pyrrole-2-4-dicarbonitrile]	9
O=[N+]([O-])c1c(-c2ccc(C(F)(F)F)cc2)[nH]c(Cl)c1Cl [2,3-Dichloro-4-nitro-5-(α,α,α-Trifluoro-p-tolylpyrrole]	9
N#Cc1cc([N+](=O)[O-])c(-c2ccc(Cl)c(Cl)c2)[nH]1 [5(3,4-Dichlorophenyl)-4-nitropyrrole-2-carbonitrile]	9
N#Cc1c(-c2ccc(Cl)cc2Cl)[nH]c(C(F)(F)F)c1Br [4-Bromo-2-(2,4-dichlorophenyl)-5-(trifluoromethyl)pyrrole-3-carbonitrile]	9
N#Cc1c(-c2ccc(C(F)(F)F)cc2)[nH]c(Cl)c1Cl [4,5-Dichloro-2-(α,α,α-trifluoro-P-tolylpyrrole-3-carbonitrile]	9
N#Cc1[nH]c(Br)c(-c2ccc(Cl)cc2)c1Br [3,5-Dibromo-4-(p-chlorophenyl)pyrrole-2-carbonitrile]	9
O=[N+]([O-])c1c[nH]cc1-c1ccccc1 [3-Nitro-4-phenylpyrrole]	9
N#Cc1c(-c2ccc(Cl)cc2)[nH]c(C(F)(F)F)c1Br [4-Bromo-2-(p-chlorophenyl)-5-(trifluoromethyl)pyrrole-3-carbonitrile]	9
O=[N+]([O-])c1c(-c2ccc(Cl)c(Cl)c2)[nH]c(Cl)c1Cl [2,3-Dichloro-5-(3,4-dichlorophenyl)-4-nitropyrrole]	9
CN(C)CCn1c(Cl)c(Cl)c(C#N)c1-c1ccc(Cl)c(Cl)c1 [4,5-Dichloro-2-(3,4-dichlorophenyl)-1-[2-(dimethylamino)ethyl]pyrrole-3-carbonitrile]	9
O=[N+]([O-])c1c(Cl)[nH]c(Cl)c1-c1ccc(Cl)c(Cl)c1 [2,5-Dichloro-3-(3,4-dichlorophenyl)-4-nitropyrrole]	9
N#Cc1[nH]ccc1-c1ccc(Cl)cc1 [3-(P-chlorophenyl)pyrrole-2-carbonitrile, 3-(p-chlorophenyl)-pyrrole-2-carbonitrile]	9

Source: US5310938A, “Substituted arylpyrrole compounds” (American Cyanamid Company, priority 1993, dated 1994)
